Earlier results on four compounds are cited in patent US11369619B2, “Composition for curing migraine headaches” (priority 2014, dated 2022).

The term LD50 denotes the dose at which mortality reaches 50%.

The subject of data set [1] is male mice. The following applies: intravenous.
The test system of data set [2] is migraine. The conditions noted are these: topical administration.
For data set [3] the following is noted: taken orally, dosages of several hundred milligrams per day.

With `C[C@@H]1C[C@H]2[C@@H]3CCC4=CC(=O)C=C[C@]4(C)[C@@]3(F)[C@@H](O)C[C@]2(C)[C@@]1(O)C(=O)COP(=O)(O)O` [Dexamethasone phosphate], the solubility in water result is “practically insoluble in water”.

Regarding `C[C@@H]1C[C@H]2[C@@H]3CCC4=CC(=O)C=C[C@]4(C)[C@@]3(F)[C@@H](O)C[C@]2(C)[C@@]1(O)C(=O)COP(=O)(O)O` [dexamethasone sodium phosphate], in data set [1], the LD50 is given as 794 mg/kg.

`CCN(CC)CC(=O)Nc1c(C)cccc1C` [lidocaine]: the “patients in whom treatment was effective” value in data set [2] was “about 55%”.

Turning to `Cc1ncc(C[n+]2csc(CCO)c2C)c(N)n1` [thiamine], in data set [3], the adverse effects entry is given as “no reports of adverse effects”.
